For one series, the system named is Meloidogyne incognita. Briefly: M. incognita miniaturized greenhouse assay (cucumber seedling in sand, root galling). It is filed as in vivo. The settings on record: average of triplicate gall rating, scale 0=0-5%, 1=6-20%, 2=21-50%, 3=51-100% root mass galled, 10 to 12 days after inoculation. How it is done: The test compound is dissolved in an acetone solution and added to water. A sprouted cucumber seedling is placed into a vial with dry sand and the water-chemical solution is added immediately. Twenty four hours later Meloidogyne incognita eggs are added to the vials and 10 to 12 days later the roots are evaluated for nematode galling.
Cucumber seeds are sprouted for 3 days in moist paper towels. Acceptable sprouts should be 3 to 4 cm long with several lateral roots just emerging. Stock solutions of chemistry are prepared in a mixture of acetone and Triton X100 (412 mg in 500 mL) to a final concentration of 5 mg/mL. The chemical stock solution is then added to 10 mL deionized water plus 0.015% Triton X100 and mixed thoroughly. This is enough to test each condition in triplicate. Ten mL dry sand is added to each vial. At this time the solubility of the chemistry is visually determined and recorded as either ppt (large precipitates) or cloudy (fine precipitates). Seedlings are planted by tilting the vial and laying the seedling in the correct orientation so that the cotyledons are just above the sand and then tilting back to cover the radicles with sand. 3.3 ml water/chemical mix is added to each vial and the vials placed in racks under fluorescent light banks. The vials are inoculated two days after planting by adding 500 vermiform M. incognita eggs to each vial in 50 uL of deionized or spring water. The vials are then kept under the fluorescent lamps at ambient room temperature and watered as needed with 1 mL deionized water, usually twice during duration of test. Harvest of the cucumber plants is done 10 to 12 days after inoculation by washing sand off the roots. A root gall rating and visual phytotoxicity rating is assigned using the following scales: Gall rating scale (Gall: % root mass galled): 0=0-5%; 1=6-20%; 2=21-50%; and 3=51-100%. The average of the triplicate gall rating is then calculated: green=0.00-0.33 (no galls); yellow=0.67-1.33 (mild galling); orange=1.67-2.33 (moderate galling); red=2.67-3.00 (severe galling). Visual phytotoxicity scale is also assigned (Vis. tox; visual reduction in root mass compared to the control): rs1=mild stunting; rs2=moderate stunting; rs3=severe stunting.

Series [1] deals with soybean cyst nematode (SCN). The series can be described thus: SCN greenhouse soil assay on soybean plants. The format is in vivo, H. glycines. The settings on record: 0 day treatment, 0.25 kg/ha rate, harvested 28 days after egg inoculation. The text has this: Soybeans seeds are planted in 100% sand in two inch square plastic pots.
Chemical treatment is done when the soybeans show the first trifoliate beginning to emerge about 10 to 12 days after planting. At least four hours after chemical application the nematode soybean cyst nematode (SCN) eggs are applied and 28 days after the egg inoculation the test is harvested.
(§1) One milligram of chemistry per four pots is equal to one kilogram per hectare of chemical. A standard test uses four replications. For rates above 2 kg/ha, the desired amount of chemical is weighed into a 30 ml vial (example: 8 kg/ha rate=8 mg chemical in 30 ml vial). The chemical is dissolved in 2 ml of appropriate solvent, generally acetone. For rates below 2 kg/ha, 2 milligrams of chemistry is weighed into the vial and dissolved in 2 ml of the solvent. The appropriate amount of chemical concentrate is then pipetted into a separate 30 ml vial and solvent is added to bring the volume to 2 ml (example 0.5 kg/ha=0.5 ml of concentrate+1.5 ml solvent). Each dissolved concentrate is then brought to a total of 20 milliliters using 0.05% Triton X 100 surfactant solution.
(§2) Pots to be treated are moist but not saturated. To each of four pots, five milliliters of the appropriate chemical solution is pipetted to the media surface making sure to avoid contact with the base of the plant. Immediately following chemical application, using a mist nozzle, the pot surface is wetted sufficiently to saturate the pot watering in the chemistry. The chemical application is done in the morning.
(§3) Nematode eggs, either SCN or RKN, are added to distilled water to create a concentration of […] of water. At least four hours after chemical treatment (0 day testing) or 1 week later (7 day longevity testing) the eggs are applied to the treated pots plus non-treated check plants. A small hole about 1 cm deep is punched into the pot surface. One milliliter of the nematode egg slurry is pipetted into the hole. Immediately afterwards the hole is gently covered. Watering of the test plants is then restricted to only water as needed to prevent wilt for a period of 24 hours. After the 24 hour restricted watering, normal sub-irrigation watering is done for the duration of the test.

The conditions of series [2]: classification by the US Environmental Protection Agency; cited from earlier work.
In a further series the test system is H. contortus. Briefly: H. contortus larval development assay. The settings on record: at 72 hours; hatching and larval movement. It is filed as cell-based. On the procedure:
The assay was performed essentially as described in: Hubert J, Kerboeuf D. A new method for culture of larvae used in diagnosis of ruminant gastrointestinal strongylosis: comparison with fecal cultures. Can J Comp Med. 1984 48(1):63-71. H. contortus eggs were obtained from Myers Parasitology (Magnolia, Ky.). The test compounds were solubilized in DMSO to create […] stock solutions. 2 ul of compound at various concentrations followed by 200 ul of molten agar were mixed into the wells. Approximately 50 eggs were placed in the well and incubated for 24 hours. After this time, >50% of the eggs were hatched in DMSO controls. After 24 hr, 100 ul of growth medium (Earle's salt solution, 1% yeast extract, 0.9% saline, and sodium bicarbonate to pH 7) containing compound was added to allow larval feeding. After 48 hr in growth medium (total of 72 hours) the wells were evaluated for hatching and larval movement.

Another series has as its system C. elegans. Briefly: C. elegans well test (contact assay). It is filed as cell-based. The settings on record: L1 worms, 20° C. How it is done:
C. elegans: Various compounds were tested for nematicidal activity against C. elegans using contact assays in wells. The assays were performed as described below. The test compounds were solubilized in DMSO at 10 mg/ml to create 100× stock solutions. A dilution series was created by diluting the stock solution with DMSO. For each well assay 4 ul of the appropriate dilution is added to a well of a test plate. A 400 ul aliquot of bacterial stock (in M9 buffer with ampicillin) is added to each well of the test plate. Worms are added and the test plate placed on a rotary shaker incubated at 20° C. Worms are examined and scored at 24 hrs, 48 hrs and 72 hours. L1 worms used in the assay are prepared by plating eggs on a plate without a bacterial feeding layer. The eggs hatch and arrest at the L1 stage. This L1 stage population is then used to create a stock for the experiments. A 25 ul aliquot of worms is added to each well in the assay.

The next series relates to root knot nematode (RKN). Briefly: RKN greenhouse soil assay on cucumber plants. The format is in vivo, M. incognita. The settings on record: 7 day treatment, rated 14 days after egg inoculation.
From the text: Cucumber seeds are planted in a sandy soil mixture in two inch square plastic pots. When the cotyledons are fully opened and just as the first leaf begins to emerge, usually 7 days after planting, chemistry for the 7-day treatment is applied. One week later the chemistry for the 0 day treatment is applied. Separate plants are used for each application. The plants are generally in the 1-2 leaf stage now. At least four hours after the chemistry application the pots are inoculated with root knot nematode (RKN) eggs. Plants are rated for galling 14 days after the egg inoculation.
as §1, §2, §3

Setting [3] is: 1 ppm, letters a-d mark separate tests.

For `Clc1ccc(-n2nnc(N3CCCC3)n2)cc1` [compound 4], the gall ratings in the series on Meloidogyne incognita (setting [3]) is 1.33; in the series on Meloidogyne incognita (8 ppm), 0.33.

`Cn1cccc1-c1nnn(-c2ccccc2)n1` [compound 5]: the gall ratings is 2.33 in the series on Meloidogyne incognita (setting [3]) and 0.00 in the series with Meloidogyne incognita (8 ppm).

On to `c1ccc(-c2nnn(-c3cccs3)n2)cc1` [compound 6], for which the gall ratings in the series on Meloidogyne incognita (setting [3]) was found to be 1.33; with Meloidogyne incognita (8 ppm) it was 0.00.

In the case of `CNC(=O)O/N=C(\SC)C(=O)N(C)C` [Oxamyl, reference compound], the “percent control (cyst reduction) relative to the control blank treatment” value in series [1] was 75%^. The toxicity class result in series [2] is recorded as “Class I”.

For the compound `Cc1cc(Cl)ccc1-n1nnc(-c2ccco2)n1` [compound 3], the “percent control (cyst reduction) relative to the control blank treatment” value in series [1] was 44%^. Also, the results for the gall ratings in the series with Meloidogyne incognita (setting [3]) and with Meloidogyne incognita (8 ppm) were 1.33 and 0, respectively. Moreover, the EC50 is less than 6.3 ppm in the series with H. contortus, 0.8/0.8/0.8 ppm in the series with C. elegans (1 day), 0.8/0.8/0.8 ppm with C. elegans (2 days) and 0.8/0.8/0.8 ppm in the series on C. elegans (3 days).

Consider `c1ccc(-n2nnc(-n3cccc3)n2)cc1` [compound 7], for which the gall ratings in the series with Meloidogyne incognita (setting [3]) was found to be 1.67; in the series on Meloidogyne incognita (8 ppm), 0.33.

In the case of `Clc1ccc(-n2nnc(-c3cccs3)n2)cc1` [compound 1], the “percent control (cyst reduction) relative to the control blank treatment” value in series [1] came to 24%^. Further, the “percent control (galling reduction) relative to the control blank treatment” value came out at 89% with root knot nematode (RKN) (0.1 kg/ha rate) and 92% with root knot nematode (RKN) (0.25 kg/ha rate). The gall ratings in the series on Meloidogyne incognita (setting [3]) was 0.67; in the series on Meloidogyne incognita (8 ppm), 0. Also, the EC50 was less than 6.3 ppm with H. contortus, 0.8 ppm with C. elegans (1 day), 0.8 ppm with C. elegans (2 days) and 0.9 ppm in the series with C. elegans (3 days).

With `c1ccc(-n2nnc(-c3cccs3)n2)cc1` [compound 2], in series [1], the “percent control (cyst reduction) relative to the control blank treatment” value came out at 52%^. The “percent control (galling reduction) relative to the control blank treatment” value in the series with root knot nematode (RKN) (0.1 kg/ha rate) is 47%; in the series with root knot nematode (RKN) (0.25 kg/ha rate), 53%. The gall ratings in the series on Meloidogyne incognita (setting [3]) came to 0.67; in the series with Meloidogyne incognita (8 ppm) it was 0.33. The EC50 in the series with H. contortus was 6.3-25 ppm; in the series on C. elegans (1 day), greater than 50 ppm; in the series with C. elegans (2 days), 0.8 ppm; with C. elegans (3 days), 0.8 ppm.
